# Data published in patent publication US20050020580A1, “Materials and methods for the prevention or treatment of apoptosis and apoptosis-related diseases and conditions” (priority 2002, published 2005).
# Where two headings read alike, the source gives them in different places.
# Columns and labels:
# [1] = NFV and RIT concentrations in brain tissues of mice given NFV/RIT suspension; type: in vivo; settings: 3 doses of NFV/RIT suspension, whole brain removed immediately preceding the fourth dose, two mice; for concentration at 8 h: C57BL/6, mouse, brain, oral
# Description: Supernatants were then analyzed as described herein for drug level determination. […] Given the significant drug levels achieved in the brains of these mice, the effects of PI in a mouse model of stroke could be examined.
# [2] = system: RAW264.7 cells; type: cell-based, mouse
# [3] = system: Eschericheria coli; test: Minimal inhibitory concentration (MIC), NCCLS guidelines; type: cell-based; settings: five clinical isolates
# [4] = system: Enterococcus; test: as above
# [5] = system: wild type yeast; test: Yeast clonogenic assay of apoptosis (Vpr peptide or H2O2); type: cell-based, Saccharomyces cerevisiae; settings: varying doses
# [6] = system: Pseudomonas aeruginosa; test: Minimal inhibitory concentration (MIC), NCCLS guidelines
# [7] = system: Jurkat T cells; test: Fas signaling in Jurkat T cells stimulated with CH-11 anti-Fas antibody; type: cell-based
# Excerpt: Annexin-V and Propidium Iodide Staining. […] Western Blot Analysis. […] Fluorometric Caspase 8 and 3 Activity.
# [8] = co-administration of RIT with NFV in human subjects (Raines et al.); cited from earlier work
# [9] = system: hepatocytes; test: Fas signaling ex vivo in hepatocytes from mice challenged with IV Jo-2; settings: hepatocytes from pretreated mice
# Description: Hepatocyte isolation: Four hours after treatment with 7.5 μg of Jo-2 antibody, mice were euthanized with pentobarbital (60 mg/kg, Abbott), and hepatocytes isolated via a two-step collagenase digestion (Seglen, P. O. Methods Cell Biol 13, 29-83, 1976). Following red cell lysis, hepatocytes were enumerated and evaluated for loss of ΔΨm, and caspase 8 and 3 activity. Fluorometric Caspase 8 and 3 Activity.
# [10] = system: PTPC; test: PTPC proteoliposomes, 4-MUP fluorescence release; type: biochemical, rat; settings: increasing doses of NFV
# Description: Liposome technology: PTPC (1 mg/ml) was separated from rat brains and ANT (0.1 mg/ml) from rat heart mitochondria as previously described (Brenner, C. et al. Methods Enzymol 322, 243-52, 2000; Marzo, I. et al. Biomed Pharmacother 52, 248-51, 1998). Immediately after purification, pure proteins were reconstituted into proteoliposomes (phosphatidylcholin/cholesterol [5:1;w:w] for PTPC and phosphatidylcholin/cardiolipin [45:1; w:w] for ANT) (Belzacq, A. S. et al. Cancer Res 63, 541-6, 2003). […] S. et al. Cancer Res 63, 541-6, 2003). 25 μl of proteoliposomes were incubated with the indicated agents (30 min for NFV and 60 min for ATR and Vpr52-96 at RT). […] The release of 4-MU was measured by spectrofluorimetry (excitation wave length 360 nm; emission wave length 450 nm). The maximum 4-MUP release was determined by adding 5% Triton X-100 to proteoliposomes. The percentage of 4-MUP release induced by treatment of liposomes by ATR was determined as [(ATR−treated liposomes fluorescence−untreated liposomes fluorescence)/(TX-100-treated liposomes fluorescence−untreated liposomes fluorescence)]×100. The maximal fluorescence induced by 800 μM ATR was then identified as 100% 4-MUP release and the fluorescence induced by the treatment of liposomes by another product or another dose was calculated as a percentage of ATR-induced 4-MUP release.
# [11] = molecular target: T1, ANT (Rattus norvegicus, UniProt Q05962); test: ANT proteoliposomes, 4-MUP fluorescence release; type: biochemical; settings: p<0.05
# T1 construct: ANT (0.1 mg/ml) from rat heart mitochondria; from tissue; host or cells: rat heart mitochondria
# T1 sequence (Q05962 1-298): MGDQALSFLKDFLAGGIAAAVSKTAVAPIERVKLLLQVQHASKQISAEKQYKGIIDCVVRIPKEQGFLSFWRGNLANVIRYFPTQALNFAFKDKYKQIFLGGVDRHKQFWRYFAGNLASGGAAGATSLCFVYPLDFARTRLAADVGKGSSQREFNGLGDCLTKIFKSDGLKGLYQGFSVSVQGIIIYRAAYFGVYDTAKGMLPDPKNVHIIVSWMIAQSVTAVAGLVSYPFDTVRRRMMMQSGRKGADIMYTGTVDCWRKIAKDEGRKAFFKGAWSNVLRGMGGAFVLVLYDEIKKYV
# Description: Liposome technology: PTPC (1 mg/ml) was separated from rat brains and ANT (0.1 mg/ml) from rat heart mitochondria as previously described (Brenner, C. et al. Methods Enzymol 322, 243-52, 2000; Marzo, I. et al. Biomed Pharmacother 52, 248-51, 1998). Immediately after purification, pure proteins were reconstituted into proteoliposomes (phosphatidylcholin/cholesterol [5:1;w:w] for PTPC and phosphatidylcholin/cardiolipin [45:1; w:w] for ANT) (Belzacq, A. S. et al. Cancer Res 63, 541-6, 2003). […] The release of 4-MU was measured by spectrofluorimetry (excitation wave length 360 nm; emission wave length 450 nm). The maximum 4-MUP release was determined by adding 5% Triton X-100 to proteoliposomes. The percentage of 4-MUP release induced by treatment of liposomes by ATR was determined as [(ATR−treated liposomes fluorescence−untreated liposomes fluorescence)/(TX-100-treated liposomes fluorescence−untreated liposomes fluorescence)]×100. The maximal fluorescence induced by 800 μM ATR was then identified as 100% 4-MUP release and the fluorescence induced by the treatment of liposomes by another product or another dose was calculated as a percentage of ATR-induced 4-MUP release.
# [12] = system: Streptococcus bovis; test: Minimal inhibitory concentration (MIC), NCCLS guidelines; settings: Streptococcus equinus
# [13] = Mouse pharmacokinetic studies: plasma drug concentrations by LC/MS/MS; type: in vivo, mice (BALB/C); settings: oral
# Description: Administration of PI for Experimental Protocols: Six to eight-week-old BALB/C mice (Jackson Labs, Bar Harbor, Me.) were acclimatized for one week before receiving either control vehicle or PI by gavage. PIs were prepared by dissolving 1% weight per volume carboxymethylcellulose and 15 mg/mL Nelfinavir (NFV) oral powder (commercial preparation, Agouron Laboratories, La Jolla, Calif.) in 2% ethanol in distilled water. […] The PI mixture was administered every 8 hours for the indicated number of doses and mice were either sacrificed for pharmacokinetic studies or treated as described. Histopathology was performed by a consulting veterinary pathologist who was blinded as to the nature of experimental treatments.
# Immediately preceding the fourth dose and every two hours post gavage until hour 8, plasma drug concentrations were assayed. At both doses, NFV was undetectable (i.e. <2.5 ng/mL) 6 hours after dosing.
# Drug levels were assessed in two mice each for several time-points. NFV levels were 8172 and 8914 ng/mL at 1 hour, 5999 and 6006 ng/mL at 2 hours, 5559 and 6048 ng/mL at 3 hours, and 4005 to 4217 ng/mL at 4 hours post-dosing.
# [14] = system: Jurkat T cells; test: Apoptosis by selective PTPC agonists (ATR, STS, PK11195) in Jurkat T cells
structure (smiles),measurement,setting,value
"CC(C)c1nc(CN(C)C(=O)N[C@H](C(=O)N[C@@H](Cc2ccccc2)C[C@H](O)[C@H](Cc2ccccc2)NC(=O)OCc2cncs2)C(C)C)cs1 [RIT, ritonavir]",RIT levels in brain tissue,[1],32 μg/gm of brain tissue
same,concentration at 8 h,[1]; RIT levels in brain tissue,38000 ng/g
"Cc1c(O)cccc1C(=O)N[C@@H](CSc1ccccc1)[C@H](O)CN1C[C@H]2CCCC[C@H]2C[C@H]1C(=O)NC(C)(C)C [NFV, nelfinavir]",Apoptosis induced by PA and LT,[2],significantly inhibited in a dose responsive manner
same,MIC,[3],> 10 µM
same,MIC,[4],> 10 µM
same,Apoptosis induced by H2O2 (viability),[5],inhibited in a dose responsive manner
same,Apoptosis induced by Vpr (viability),[5],inhibited in a dose responsive manner
same,MIC,[6],> 10 µM
same,"Procaspase 8 cleavage and activity, and Bid cleavage vs vehicle control cells","[7]; NFV pretreated, CH-11",similar
same,"ΔΨm (loss of DiOC6 retention), cytochrome c release, caspase 9, and caspase 3 cleavage and activity","[7]; NFV pretreatment, CH-11",reduced
same,Apoptosis (Annexin positivity) after CH-11 anti-CD95 antibody,"[7]; NFV pretreatment, varying concentrations",dose-dependent reduction in apoptosis
same,Levels of NFV compared to NFV alone,[8],significantly increased
same,ΔΨm loss,[9],inhibited
same,ATR induced fluorescence release from PTPC liposomes,[10],progressively inhibited
same,ATR induced release of fluorescence from ANT liposomes,[11],inhibited
same,Vpr induced release of fluorescence from ANT liposomes,[11],inhibited
same,MIC,[12],> 10 µM
same,Levels of NFV in brain tissue,[1],986 μg/gm of brain tissue
same,concentration at 8 h,[1]; read-out: Levels of NFV in brain tissue,682000 ng/g
same,concentration at 6 h,"[13]; BALB/C, NFV alone, 125 mg/kg or 250 mg/kg every 8 hours by gavage, BALB/C mice, read-out: NFV plasma drug concentration 6 hours after dosing",< 2.5 ng/mL
same,Cmax,[13]; pharmacokinetic studies in mice (data not shown),~8 µM
same,"PK11195 induced apoptosis, ΔΨm, cytochrome c release, caspase 9, caspase 3 and PARP cleavage","[14]; PBR agonist PK11195, NFV pretreated",not altered
same,"STS induced apoptosis, ΔΨm, cytochrome c release, caspase 9, caspase 3 and PARP cleavage","[14]; VDAC agonist STS, NFV pretreated",not altered
